Source: patent US6603023B2 (priority 1996, dated 2003)

What was measured:
[1] = Hematology and blood chemistry toxicity in MX-1 bearing mice; conditions: day 30; dEpoB 25 mg/kg i.p. day 7-15 then 35 mg/kg day 17-25; Taxol 5 then 6 mg/kg; MX-1 bearing nude mice
[2] = tested on: P388/Adr; assay: cells; type: cell-based, murine; conditions: Mus musculus, P388/ADR, 72 h
Summary of the method: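 Duplicate 72 h cultures at 5×10^4 cells/mL, 37 °C, 5% CO2; then XTT plus PMS for 4 h; dual-wavelength read at 450/630 nm. Resistant sublines held under their selecting agents.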

[3] = tested on: A549 Human Lung Carcinoma; assay: A549 xenograft; type: in vivo, nude mice; conditions: for Average Tumor Size, Day 11: control 96; for Average Tumor Size, Day 13: control 128; for Average Tumor Size, Day 15: control 306; for Average Tumor Size, Day 17: control 553; for Average Body Weight, Day 7: initial weight
[4] = tested on: DC-3F hamster lung fibroblast cell line; assay: SRB cytotoxicity, DC-3F; type: cell-based; conditions: Mesocricetus auratus, DC3F
Summary of the method: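 Cellular protein content measured with sulforhodamine B after trichloroacetic acid fixation, read at 570 nm. Each duplicate run used six to seven concentrations, analysed by the median-effect method. Cells were cultured at 37 °C, 5% CO2 in RPMI 1640-10% FBS, and drug-resistant lines were maintained with their selecting agent.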

[5] = tested on: CCRF-CEM; assay: Drug combination analysis (combination index, XTT, 72 h); type: cell-based; conditions: Homo sapiens, median-effect parameter, read-out: Dm (IC50)
[6] = tested on: DC-3F/ADII; assay: SRB cytotoxicity, DC-3F/ADII; type: cell-based, hamster; conditions: Mesocricetus auratus, DC3F
Summary of the method: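 Cell protein content measured by sulforhodamine B staining after trichloroacetic acid fixation, read at 570 nm; duplicate runs of six to seven concentrations fitted by median-effect analysis. Lines are actinomycin D-resistant DC-3F hamster lung sublines (ADII, ADX), kept under selecting drug in RPMI 1640-10% FBS.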

[7] = A549 Lung, dEpoB 40 mg/kg Q2D x 3, Taxol 15 mg/kg Q2D x 3
[8] = Q2D x 3, 6 hr i.v. infusion: dEpoB 40, Taxol 24 mg/kg
[9] = Q2D x 3: dEpoB 30 mg/kg 18 hr i.v. infusion, Taxol 15 mg/kg 6 hr infusion, VBL 2 and VP-16 25 mg/kg i.v. inj

CC(=O)O[C@H]1C(=O)[C@@]2(C)[C@H]([C@H](OC(=O)c3ccccc3)[C@]3(O)C[C@H](OC(=O)[C@H](O)[C@@H](NC(=O)c4ccccc4)c4ccccc4)C(C)=C1C3(C)C)[C@]1(OC(C)=O)CO[C@@H]1C[C@@H]2O [Taxol ®, paclitaxel]
GOT [1]: 438 U/L | GPT [1]: 79 (n = 5) U/L | WBC Lymph [1]: 48% | WBC Neutrophils [1]: 51% | WBC Total [1]: 10.9 10^3/mm^3 | IC50 [2]: 326 nM | Lowest Average Tumor Size (T/C) [3, 7]: 0.01 T/C | Tumor Disappearance [3, 7]: 2/4 | Average Body Weight (change), Day 11 [3, 8]: -2.1 g | Average Body Weight (change), Day 13 [3, 8]: -2.7 g | Average Body Weight (change), Day 15 [3, 8]: -0.9 g | Tumor Disappearance [3, 8]: 4/4 | Average Tumor Size, Day 11 [3, 8]: 14 mm^3 | Average Tumor Size, Day 13 [3, 8]: 8 mm^3 | Average Tumor Size, Day 15 [3, 8]: 0 mm^3 | Average Tumor Size, Day 17 [3, 8]: 0 mm^3 | Average Body Weight (change), Day 11 [3, 9]: -1.2 g | Average Body Weight (change), Day 13 [3, 9]: -0.8 g | Average Body Weight (change), Day 15 [3, 9]: +0.5 g | Tumor Disappearance [3, 9]: 2/4 | Average Tumor Size, Day 11 [3, 9]: 49 mm^3 | Average Tumor Size, Day 13 [3, 9]: 32 mm^3 | Average Tumor Size, Day 15 [3, 9]: 7 mm^3 | Average Tumor Size, Day 17 [3, 9]: 6 mm^3 | Average Body Weight, Day 7 [3, 8]: 28.5 g | Average Body Weight, Day 7 [3, 9]: 27.6 g | IC50 ([4]; 72 h, Table 1C, SRB): 95 nM | IC50 ([4]; Table 3): 94.7 nM | IC50 ([4]; relative potency ordering): 90 nM | IC50 [5]: 1.09 nM | IC50 [6]: 3200 nM
